Data on 8 molecules can be found in patent US8765676B2, “Calcium sensing receptor modulating compounds and pharmaceutical use thereof” (Leo Pharma A/S, priority 2009, dated 2014).

By EC50 is commonly meant the concentration needed to bring the measured effect to its halfway point. A lower EC50 goes with a more potent agent. By Vd is commonly meant a proportionality between amount in the body and measured concentration, not a real space.

Data set [1] concerns the target T1, human CaSR (Homo sapiens, UniProt P41180).
T1 sequence (P41180 20-1078): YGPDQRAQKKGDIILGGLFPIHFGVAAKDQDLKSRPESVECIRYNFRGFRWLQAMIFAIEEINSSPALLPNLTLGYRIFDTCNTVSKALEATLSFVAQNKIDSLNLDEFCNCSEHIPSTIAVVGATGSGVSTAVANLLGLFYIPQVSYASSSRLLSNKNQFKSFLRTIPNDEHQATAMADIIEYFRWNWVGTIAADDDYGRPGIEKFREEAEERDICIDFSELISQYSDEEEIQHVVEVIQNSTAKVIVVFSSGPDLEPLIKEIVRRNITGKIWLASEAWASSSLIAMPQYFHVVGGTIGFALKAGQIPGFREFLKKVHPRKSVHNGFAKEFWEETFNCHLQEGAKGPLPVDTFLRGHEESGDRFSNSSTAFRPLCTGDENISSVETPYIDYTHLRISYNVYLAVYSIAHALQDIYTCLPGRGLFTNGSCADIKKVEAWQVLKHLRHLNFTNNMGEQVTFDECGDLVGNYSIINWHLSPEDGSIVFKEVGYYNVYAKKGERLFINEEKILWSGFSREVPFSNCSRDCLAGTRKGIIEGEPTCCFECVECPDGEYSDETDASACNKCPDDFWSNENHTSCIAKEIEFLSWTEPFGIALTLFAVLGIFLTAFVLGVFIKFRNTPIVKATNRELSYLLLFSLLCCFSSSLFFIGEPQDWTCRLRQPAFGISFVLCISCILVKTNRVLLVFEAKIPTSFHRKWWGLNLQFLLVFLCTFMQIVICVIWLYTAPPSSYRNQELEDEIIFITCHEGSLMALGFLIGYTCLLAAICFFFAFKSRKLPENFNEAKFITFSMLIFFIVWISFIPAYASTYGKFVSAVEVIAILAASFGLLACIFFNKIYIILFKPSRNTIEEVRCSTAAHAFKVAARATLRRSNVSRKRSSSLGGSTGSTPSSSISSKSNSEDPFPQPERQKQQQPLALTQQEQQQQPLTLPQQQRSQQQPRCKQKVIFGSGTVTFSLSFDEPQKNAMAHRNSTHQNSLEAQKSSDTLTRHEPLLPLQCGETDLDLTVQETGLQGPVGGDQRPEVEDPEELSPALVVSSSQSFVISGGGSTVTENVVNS
Kind of data set: Functional whole cell assay (modulation of human CaSR), IP1 accumulation in CHO-K1 cells. The format is cell-based. Conditions: human CaSR stably expressed on CHO-K1 cells, 2 mM Ca2+, IP-One htrf. The text has this:
The assay investigates a compound's functional ability to act as a biological positive modulator on the human CaSR. Activation of the receptor expressed on CHO-K1 cells is detected through the G alpha q pathway, the activation of phospholipase C and the accumulation of intracellular inositol phosphate (IP) as described earlier [Sandrine Ferry, Bruno Chatel, Robert H. Dodd, Christine Lair, Danielle Gully, Jean-Pierre, Maffrand, and Martial Ruat. Effects of Divalent Cations and of a Calcimimetic on Adrenocorticotropic Hormone Release in Pituitary Tumor Cells. BIOCHEMICAL AND BIOPHYSICAL RESEARCH COMMUNICATIONS 238, 866-873 (1997)]. The human CaSR is stably expressed on a CHO-K1 cell clone, stimulated with a basal level of calcium and challenged with the tested compound. The level of IP1 is determined using the IP-One htrf kit (Cisbio, France). CHO-K1 cells not transfected with the CaSR fail to elicit an IP1 response upon calcium and/or compound stimulation.
The ORF coding for the human CaSR (genebank: NM_000388) was acquired from Invitrogen Corp, USA and subsequently cloned into the mammalian expression vector pCDA3.1.
CHO-K1 cells were transfected using Lipofectamine according to manufacturer's protocol (400.000 cells/well were seeded in a 6-well plate and transfected after 24 hours using 2 μg DNA and 5 μl lipofectamine). After another 24 hours the cells were detached, seeded and subjected to 1 mg/ml of G-418. Following 7 days growth single clones were picked, the CaSR expression evaluated using the 5C10 antibody against CaSR, the clones with the highest expression were selected and tested for functional response. The preferred clone was continuously cultured according to standard procedures described in ATCC (American Type Culture Collection) protocols for CHO-K1 with the addition of 500 μg/ml G-418.
On the assay day cells were harvested and resuspended to 13*10^6 cells/ml in stimulation buffer (containing: Hepes 10 mM, MgCl2 0.5 mM, KCl 4.2 mM, NaCl 146 mM, glucose 5.5 mM, LiCl 50 mM at pH 7.4). Five μl cell solution were pipetted into a well (white 384-well plate, Perkin Elmer Optiplate) followed by 5 μl compound diluted in a Ca^2+-containing (to the final concentration of 2 mM) buffer. After compound stimulation for 1 hour at 37° C. 10 ul of IP-One assay reagents were added and incubated for another 1 hour at room temperature. Finally the plate was read using a Perkin Elmer EnVision, according to protocol supplied by the IP-One assay kit manufacturer. The FRET ratio was calculated by dividing the 665 nm emission signal with that of the 615 nm.

A short description of data set [2]: Clearance in human liver microsomes. Conditions: 0.5 μM compound, 0.5 mg/mL microsomes, 1 mM NADPH. It is filed as in vitro ADME. The method, then: Test compound concentration is 0.5 μM, microsome concentration is 0.5 mg/mL and NADPH concentration is 1 mM in the incubation. The described method is performed by the liquid handling system Tecan RSP and is based on a 96-well format.
Control incubations with test compound without NADPH and test compound without microsomes are conducted to investigate non-CYP mediated metabolism and stability in phosphate buffer at 37° C., respectively.
The human liver microsomal suspension in phosphate buffer is mixed with NADPH. The mixture is pre-heated (7 min) to 37° C. Test compound is added, and the mixture is incubated for 30 minutes. Incubations are run in duplicate. Samples are withdrawn at predetermined stop times and mixed with methanol containing internal standard (IS) to terminate all enzyme activity and precipitate proteins. A control without NADPH (to detect problems such as nonspecific protein binding, heat instability or non-CYP mediated metabolism) and a control without microsomes (for assessing compound stability in the absence of any active enzymes) are tested.
The percentage of organic solvent in the incubations is less than 1%. Careful inspections of reagents are performed prior to the start of any experiment to ensure all reagents are in solution.
The 96-well plates are centrifuged. Test compound depletion, using a compound specific LC/MS/MS method, is determined.
The logarithm of the peak area ratios of test compound to internal standard (IS) versus incubation time is plotted in a graph.
The rate constant (k) (min^−1) of test compound depletion is calculated from the linear part of the curve and the half-time (t1/2) in minutes can be calculated from the rate constant (Eq. 1). t1/2=(ln 2)/k (Eq. 1)
Intrinsic clearance (Clint) (mL/min/mg protein) is calculated from: Clint=k/c (Eq. 2) where c is the microsomal protein concentration in mg/mL.
Conversion to apparent clearance (Clapp) (mL/min/kg) is done by Eq. 3: Clapp=Clint×a×b/d (Eq. 3) where a, b and d are the scaling factors for normalizing Clint to human body weight.
The following human scaling factors are used:
a: 45 (microsomal protein/liver weight (mg/g))
b: 1500 (liver weight (g))
Apparent clearance below approximately 10 mL/min/kg human body weight (corresponding to extraction ratio of approx. 30%) is considered as low clearance (high metabolic stability). Apparent intrinsic clearance above approximately 60 mL/min/kg human body weight (corresponding to extraction ratio of approx. 75%) is considered as high clearance (low metabolic stability).
In general terms: Liver microsomes are vesicles of endoplasmic reticulum, rich in cytochrome P450 enzymes.

A short description of data set [3]: Pharmacokinetic profile following intravenous administration in rats. As to conditions: serum, rat, 0.5 mg/kg. The format is in vivo. Here is the method:
A rat is dosed intravenously with a solution of test compound (0.5 mg/kg) in DMSO/EtOH/H2O/propylene glycol [0.2:0.8:5:4] and blood samples are taken from the sublingual venous plexus after 2 min, 10 min, 30 min, 1 h, 2 h, 4 h and 6 h.
Blood samples are taken in BD Vacutainer SST serum separation tubes, serum is isolated by centrifugation, transferred to micronics tubes and analyzed. Samples are kept at −18° C. pending analysis.
Mass spectrometer (API5000 series) parameters are optimised to analyse for the specific compounds and test injections are performed to confirm the validity of the established generic chromatography method. The generic method is based on fast gradient (2.5 min) analysis on C18 column with mobile phases consisting methanol, ammonium acetate, formic acid and water.
Standards are prepared in rat serum to cover the analytical range 0.1 to 300 ng/ml. Standards, blank serum and study samples are applied to 96 deepwell plate and proteins are precipitated by addition of acetonitrile containing internal standard. Samples are analysed on LC-MS/MS usually over night.
As standard, the 2 and 10 min samples are diluted 10 times with rat serum prior to analysis. Other samples may need similar dilution to keep quantification below 300 ng/ml.
Quantification is performed based on the ratio between analyte and internal standard. The curve should preferably fit a linear curve using a 1/x weighting factor. At least a factor of two is needed to distinguish between blank serum and lowest standard. If this is not the case the quantification of the specific experiment may be raised.
Calculation of T½ requires at least three datapoints describing a true elimination phase. If such three points are not available AUC (0-inf) can not be estimated. In these cases […](0-6 h) is calculated instead.
Total clearance of drug from serum (Cl_iv) is calculated from: Cl—iv=Dose/AUC
Terminal volume of distribution (Vd) is defined as the volume in which the amount of drug would need to be uniformly distributed to produce the observed serum concentration and is calculated from: Vd=T½×Cl—iv/(ln 2)

SMILES strings stand for the structures. Where only a bound is given, the exact number is not on record here.

`COc1cc([C@@H](C)NC2CC[C@H](c3ccc(C(=O)NC4CCNCC4)cc3)C2)ccc1F` (mixture of isomers) [Compound 1157, (1R)—(N)-[(3S)-3-[4-[piperidin-4-ylaminocarbonyl]phenyl]-cyclopentyl]-1-(4-fluoro-3-methoxyphenyl)ethanamine]: the EC50 in data set [1] is < 500 nM. Besides, the “Clearance (Clapp) in human liver microsomes” value (shortened to “Clearance (Clapp)”) in data set [2] was “A (A: <20 mL/min/kg)”. The molecule also returned a Vd in data set [3] of 10 to 50 L/kg.

Consider `COc1cc([C@@H](C)NC2CCC(c3ccc(CNS(C)(=O)=O)cc3)C2)ccc1F` (mixture of isomers) [Compound 1181, N-[[4-[(1R/S,3R/S)-3-[[(1R)-1-(4-fluoro-3-methoxy-phenyl)ethyl]amino]cyclopentyl]-phenyl]methyl]methanesulfonamide], for which, in data set [1], the 50% effective concentration (EC50) is < 500 nM. Also, in data set [2], the “Clearance (Clapp)” value is “A (A: <20 mL/min/kg)”.

Turning to `COc1cc([C@@H](C)NC2CC[C@H](c3ccc(S(C)(=O)=O)cc3)C2)ccc1F` (stereo partly drawn) [Compound 1014, (1R)—(N)-[(1R/S,3S)-3-(4-methanesulfonylphenyl)cyclopentyl]-1-(4-fluoro-3-methoxyphenyl)ethanamine], the 50% effective concentration (EC50) in data set [1] was < 500 nM. Moreover, the “Clearance (Clapp)” value in data set [2] is “A (A: <20 mL/min/kg)”.

In the case of `COc1cc([C@@H](C)N[C@H]2CC[C@@H](c3ccc(C(=O)NCCO)cc3)C2)ccc1F` [Compound 1176, 4-{(1R,3S)-3-[(1R)-1-(4-Fluoro-3-methoxy-phenyl)-ethylamino]-cyclopentyl}-N-(2-hydroxy-ethyl)-benzamide], the concentration for a half-maximal effect (EC50) in data set [1] is < 500 nM. Also, the “Clearance (Clapp)” value in data set [2] is “A (A: <20 mL/min/kg)”.

As to `COc1cc([C@@H](C)N[C@H]2CC[C@@H](c3ccc(C(=O)NCCNS(C)(=O)=O)cc3)C2)ccc1F.Cl` [Compound 1178, 4-{(1R,3S)-3-[(1R)-1-(4-Fluoro-3-methoxy-phenyl)-ethylamino]-cyclopentyl}-N-(2-methanesulfonylamino-ethyl)-benzamide hydrochloride], the concentration giving a half-maximal response (EC50) in data set [1] is < 500 nM. Also, the “Clearance (Clapp)” value in data set [2] is recorded as “A (A: <20 mL/min/kg)”. Further, in data set [3], the Vd was > 50 L/kg.

Regarding `COc1cc([C@@H](C)N[C@H]2CC[C@@H](c3ccc(C(=O)N4CCNC(=O)C4)cc3)C2)ccc1F` [Compound 1179, 4-(4-{(1R,3S)-3-[(1R)-1-(4-Fluoro-3-methoxy-phenyl)-ethylamino]-cyclopentyl}-benzoyl)-piperazin-2-one], the concentration giving a half-maximal response (EC50) in data set [1] was < 500 nM. In data set [2], the “Clearance (Clapp)” value is given as “A (A: <20 mL/min/kg)”. In data set [3], this molecule had a volume of distribution (Vd) of 10 to 50 L/kg.

Take `COc1cc([C@@H](C)N[C@H]2CC[C@@H](c3ccc(-c4nnn[nH]4)cc3)C2)ccc1F` [Compound 1182, (1S,3R)—N-[(1R)-1-(4-fluoro-3-methoxy-phenyl)ethyl]-3-[4-(1H-tetrazol-5-yl)phenyl]cyclopentanamine]: the EC50 in data set [1] is < 500 nM. The “Clearance (Clapp)” value in data set [2] is reported as “A (A: <20 mL/min/kg)”. Also, the Vd in data set [3] was < 10 L/kg.

As to `COc1cc([C@@H](C)N[C@H]2CC[C@@H](c3ccc(S(=O)(=O)NCCO)cc3)C2)ccc1F` [Compound 1187, 4-[(1R,3S)-3-[[(1R)-1-(4-fluoro-3-methoxy-phenyl)ethyl]amino]-cyclopentyl]-N-(2-hydroxyethyl)benzenesulfonamide], the concentration giving a half-maximal response (EC50) in data set [1] was < 500 nM. Also, the “Clearance (Clapp)” value in data set [2] is reported as “A (A: <20 mL/min/kg)”. The volume of distribution (Vd) in data set [3] is > 50 L/kg.
